Source: ChEMBL document CHEMBL1201862, “PubChem BioAssay data set” (2004)
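Grown in 96-well plates, cells were treated for 48 hours with each compound at five concentrations. Insufficient inhibition: endpoint recorded as highest concentration tested. GI50 = concentration required for 50% inhibition of growth.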 Activity calls are given as the source filed them. Rule as the data show it: active = GI50 up to about 1.1 µM and inactive = higher.

Legend:
Assay in all cases: NCI anticancer screen, dose series, 48 h
DLD-1 = test system: DLD-1
SF-539 = test system: SF-539
NCI-H460 = test system: NCI-H460
KM12 = test system: KM12
A498 = test system: A498
KM-20L2 = test system: KM-20L2
CCRF-CEM = test system: CCRF-CEM
SF-295 = test system: SF-295
SF-268 = test system: SF-268
SK-MEL-28 = test system: SK-MEL-28
K562 = test system: K562
RPMI-8226 = test system: RPMI-8226
NCI-H226 = test system: NCI-H226
NCI-H23 = test system: NCI-H23
HCC 2998 = test system: HCC 2998
SW-620 = test system: SW-620
SNB-75 = test system: SNB-75
M14 = test system: M14
OVCAR-3 = test system: OVCAR-3
HCT-15 = test system: HCT-15
RXF 393 = test system: RXF 393
SK-MEL-2 = test system: SK-MEL-2
MOLT-4 = test system: MOLT-4
NCI-H522 = test system: NCI-H522
SNB-78 = test system: SNB-78
DMS-114 = test system: DMS-114
U-251 = test system: U-251
CAKI-1 = test system: CAKI-1
TK-10 = test system: TK-10
COLO 205 = test system: COLO 205
SNB-19 = test system: SNB-19
EKVX = test system: EKVX
ACHN = test system: ACHN
DMS-273 = test system: DMS-273
A549 = test system: A549
OVCAR-4 = test system: OVCAR-4
HL-60 = test system: HL-60
HT-29 = test system: HT-29
HOP-62 = test system: HOP-62
UACC-257 = test system: UACC-257
OVCAR-8 = test system: OVCAR-8
OVCAR-5 = test system: OVCAR-5
SN12C = test system: SN12C
HCT-116 = test system: HCT-116
IGROV-1 = test system: IGROV-1
786-0 = test system: 786-0
LOX IMVI = test system: LOX IMVI
UO-31 = test system: UO-31
SR = test system: SR
LXFL 529 = test system: LXFL 529
UACC-62 = test system: UACC-62
SK-MEL-5 = test system: SK-MEL-5
Malme-3M = test system: Malme-3M
SK-OV-3 = test system: SK-OV-3
M19-MEL = test system: M19-MEL

Q: With `Cc1ccc(S(=O)(=O)c2ccc(NC(=O)SCCC(=O)O)cc2)cc1` as the compound, how does the GI50 (DLD-1) read?
A: The GI50 was > 100 µM (inactive).

Q: And the GI50 (SF-539)?
A: The GI50 was > 100 µM (inactive).

Q: And the GI50 (NCI-H460)?
A: Its GI50 is > 100 µM (inactive).

Q: And the GI50 (KM12)?
A: Its GI50 is > 100 µM (inactive).

Q: And the GI50 (A498)?
A: Its GI50 is > 100 µM (inactive).

Q: What about the GI50 (KM-20L2) of the same compound?
A: The GI50 was > 100 µM (inactive).

Q: And the GI50 (CCRF-CEM)?
A: The GI50 was > 100 µM (inactive).

Q: What about the GI50 (SF-295) of the same compound?
A: Its GI50 is > 100 µM (inactive).

Q: And the GI50 (SF-268)?
A: The GI50 was > 100 µM (inactive).

Q: What about the GI50 (SK-MEL-28) of the same compound?
A: The GI50 was > 100 µM (inactive).

Q: What about the GI50 (K562) of the same compound?
A: The GI50 was > 100 µM (inactive).

Q: What about the GI50 (RPMI-8226) of the same compound?
A: Its GI50 is > 100 µM (inactive).

Q: And the GI50 (NCI-H226)?
A: Its GI50 is > 100 µM (inactive).

Q: And the GI50 (NCI-H23)?
A: The GI50 was > 100 µM (inactive).

Q: And the GI50 (HCC 2998)?
A: Its GI50 is > 100 µM (inactive).

Q: And the GI50 (SW-620)?
A: Its GI50 is > 100 µM (inactive).

Q: And the GI50 (SNB-75)?
A: The GI50 was 17.8 µM (inactive).

Q: And the GI50 (M14)?
A: Its GI50 is > 100 µM (inactive).

Q: And the GI50 (OVCAR-3)?
A: Its GI50 is > 100 µM (inactive).

Q: And the GI50 (HCT-15)?
A: Its GI50 is greater than 100 µM.

Q: What about the GI50 (RXF 393) of the same compound?
A: Its GI50 is > 100 µM (inactive).

Q: And the GI50 (SK-MEL-2)?
A: Its GI50 is > 100 µM (inactive).

Q: What about the GI50 (MOLT-4) of the same compound?
A: Its GI50 is > 100 µM (inactive).

Q: What about the GI50 (NCI-H522) of the same compound?
A: The GI50 was > 100 µM (inactive).

Q: And the GI50 (SNB-78)?
A: The GI50 was > 100 µM (inactive).

Q: And the GI50 (DMS-114)?
A: Its GI50 is > 100 µM (inactive).

Q: What about the GI50 (U-251) of the same compound?
A: The GI50 was > 100 µM (inactive).

Q: And the GI50 (CAKI-1)?
A: The GI50 was > 100 µM (inactive).

Q: And the GI50 (TK-10)?
A: Its GI50 is > 100 µM (inactive).

Q: And the GI50 (COLO 205)?
A: Its GI50 is > 100 µM (inactive).

Q: And the GI50 (SNB-19)?
A: Its GI50 is > 100 µM (inactive).

Q: What about the GI50 (EKVX) of the same compound?
A: Its GI50 is > 100 µM (inactive).

Q: What about the GI50 (ACHN) of the same compound?
A: The GI50 was > 100 µM (inactive).

Q: What about the GI50 (DMS-273) of the same compound?
A: The GI50 was > 100 µM (inactive).

Q: What about the GI50 (A549) of the same compound?
A: Its GI50 is > 100 µM (inactive).

Q: And the GI50 (OVCAR-4)?
A: Its GI50 is > 100 µM (inactive).

Q: What about the GI50 (HL-60) of the same compound?
A: The GI50 was > 100 µM (inactive).

Q: And the GI50 (HT-29)?
A: The GI50 was > 100 µM (inactive).

Q: And the GI50 (HOP-62)?
A: Its GI50 is > 100 µM (inactive).

Q: And the GI50 (UACC-257)?
A: The GI50 was > 100 µM (inactive).

Q: What about the GI50 (OVCAR-8) of the same compound?
A: Its GI50 is > 100 µM (inactive).

Q: What about the GI50 (OVCAR-5) of the same compound?
A: The GI50 was > 100 µM (inactive).

Q: And the GI50 (SN12C)?
A: Its GI50 is > 100 µM (inactive).

Q: What about the GI50 (HCT-116) of the same compound?
A: Its GI50 is > 100 µM (inactive).

Q: And the GI50 (IGROV-1)?
A: Its GI50 is 5.14 µM (inactive).

Q: And the GI50 (786-0)?
A: The GI50 was > 100 µM (inactive).

Q: What about the GI50 (LOX IMVI) of the same compound?
A: Its GI50 is > 100 µM (inactive).

Q: And the GI50 (UO-31)?
A: Its GI50 is > 100 µM (inactive).

Q: And the GI50 (SR)?
A: The GI50 was > 100 µM (inactive).

Q: And the GI50 (LXFL 529)?
A: The GI50 was > 100 µM (inactive).

Q: And the GI50 (UACC-62)?
A: The GI50 was > 100 µM (inactive).

Q: For `CCOC(=O)C1=C(C(=O)OCC)C2c3ccccc3C=CN2C(C(=O)OCC)=C(SC)S1` (stereo not drawn), which GI50 (DLD-1) is on record?
A: The GI50 was > 100 µM (inactive).

Q: And the GI50 (SF-539)?
A: The GI50 was > 100 µM (inactive).

Q: And the GI50 (NCI-H460)?
A: Its GI50 is > 100 µM (inactive).

Q: And the GI50 (KM-20L2)?
A: Its GI50 is > 100 µM (inactive).

Q: And the GI50 (CCRF-CEM)?
A: The GI50 was 30.8 µM (inactive).

Q: What about the GI50 (SF-295) of the same compound?
A: Its GI50 is > 100 µM (inactive).

Q: What about the GI50 (SF-268) of the same compound?
A: The GI50 was > 100 µM (inactive).

Q: And the GI50 (SK-MEL-28)?
A: The GI50 was > 100 µM (inactive).

Q: And the GI50 (K562)?
A: Its GI50 is 41.8 µM (inactive).

Q: What about the GI50 (RPMI-8226) of the same compound?
A: Its GI50 is 17.8 µM (inactive).

Q: And the GI50 (NCI-H226)?
A: Its GI50 is > 100 µM (inactive).

Q: What about the GI50 (NCI-H23) of the same compound?
A: The GI50 was 87.1 µM (inactive).

Q: What about the GI50 (HCC 2998) of the same compound?
A: The GI50 was > 100 µM (inactive).

Q: And the GI50 (SW-620)?
A: The GI50 was 92.9 µM (inactive).

Q: What about the GI50 (SNB-75) of the same compound?
A: Its GI50 is > 100 µM (inactive).

Q: And the GI50 (M14)?
A: The GI50 was 89.1 µM (inactive).

Q: What about the GI50 (OVCAR-3) of the same compound?
A: Its GI50 is 96.2 µM (inactive).

Q: What about the GI50 (HCT-15) of the same compound?
A: Its GI50 is 79.8 µM.

Q: And the GI50 (RXF 393)?
A: Its GI50 is 73.1 µM (inactive).

Q: And the GI50 (SK-MEL-2)?
A: Its GI50 is > 100 µM (inactive).

Q: What about the GI50 (MOLT-4) of the same compound?
A: The GI50 was 21.6 µM (inactive).

Q: What about the GI50 (NCI-H522) of the same compound?
A: The GI50 was 24.4 µM (inactive).

Q: What about the GI50 (SK-MEL-5) of the same compound?
A: The GI50 was 32.4 µM (inactive).

Q: What about the GI50 (SNB-78) of the same compound?
A: Its GI50 is 79.1 µM (inactive).

Q: And the GI50 (Malme-3M)?
A: Its GI50 is > 100 µM (inactive).

Q: And the GI50 (DMS-114)?
A: The GI50 was 52.5 µM (inactive).

Q: And the GI50 (U-251)?
A: The GI50 was 50.7 µM (inactive).

Q: What about the GI50 (CAKI-1) of the same compound?
A: The GI50 was > 100 µM (inactive).

Q: What about the GI50 (TK-10) of the same compound?
A: The GI50 was > 100 µM (inactive).

Q: And the GI50 (COLO 205)?
A: Its GI50 is 91.6 µM (inactive).

Q: And the GI50 (SNB-19)?
A: The GI50 was > 100 µM (inactive).

Q: What about the GI50 (EKVX) of the same compound?
A: Its GI50 is > 100 µM (inactive).

Q: And the GI50 (ACHN)?
A: The GI50 was > 100 µM (inactive).

Q: And the GI50 (DMS-273)?
A: The GI50 was 63.1 µM (inactive).

Q: What about the GI50 (A549) of the same compound?
A: Its GI50 is 47.6 µM (inactive).

Q: And the GI50 (HL-60)?
A: Its GI50 is 25.9 µM (inactive).

Q: What about the GI50 (HT-29) of the same compound?
A: Its GI50 is > 100 µM (inactive).

Q: And the GI50 (HOP-62)?
A: The GI50 was > 100 µM (inactive).

Q: What about the GI50 (UACC-257) of the same compound?
A: Its GI50 is 42.5 µM (inactive).

Q: And the GI50 (OVCAR-8)?
A: The GI50 was > 100 µM (inactive).

Q: What about the GI50 (OVCAR-5) of the same compound?
A: Its GI50 is > 100 µM (inactive).

Q: And the GI50 (SN12C)?
A: Its GI50 is 98.4 µM (inactive).

Q: What about the GI50 (HCT-116) of the same compound?
A: Its GI50 is 50.7 µM (inactive).

Q: What about the GI50 (IGROV-1) of the same compound?
A: Its GI50 is > 100 µM (inactive).

Q: And the GI50 (786-0)?
A: Its GI50 is > 100 µM (inactive).

Q: What about the GI50 (SK-OV-3) of the same compound?
A: The GI50 was > 100 µM (inactive).

Q: And the GI50 (M19-MEL)?
A: The GI50 was > 100 µM (inactive).

Q: What about the GI50 (LOX IMVI) of the same compound?
A: Its GI50 is 97.3 µM (inactive).

Q: And the GI50 (UO-31)?
A: The GI50 was 74.1 µM (inactive).

Q: What about the GI50 (SR) of the same compound?
A: Its GI50 is 19.3 µM (inactive).

Q: What about the GI50 (LXFL 529) of the same compound?
A: The GI50 was 51.2 µM (inactive).

Q: And the GI50 (UACC-62)?
A: Its GI50 is 58.1 µM (inactive).
